Values of other authors as cited in patent US20130122120A1, “INSECTICIDAL COMPOSITIONS AND METHODS” (priority 2011, published 2013).

How the values were obtained:
[1] = applied directly to skin or consumed
aphids = conditions: nymphs and adults

SMILES: CCCCCCCCCCCCOS(=O)(=O)[O-].[Na+] [Sodium lauryl sulfate, Sodium dodecyl sulfate]
- carcinogenicity [1]: not carcinogenic
- efficacy against aphids (aphids): some limited efficacy for treating aphids, killing the nymphs, but merely delays death in adults
- aggregation number (at the CMC): about 62
- critical micelle concentration (CMC) (pure water at 25° C.): 8.2 mM
- Ames (bacterial mutation) test result (bacterial mutation): negative
